Here are results for 36 molecules from ChEMBL document CHEMBL1821576, “Synthesis and antitumour activity of β-hydroxyisovalerylshikonin analogues” (Eur J Med Chem, 2011).

The test system of assay [1] is HeLa. Description: Cytotoxicity against human HeLa cells by MTT assay. Type of assay: functional, cell-based. (In general: Tetrazolium dyes change colour on reduction, which living cells bring about.)
Assay [2] concerns DU-145. As to the kind of experiment: Cytotoxicity against human DU145 cells by MTT assay. In kind it is functional, cell-based.
For assay [3], the system named is DU-145. Description: Ratio of cyclophosphamide IC50 to compound IC50 for human DU145 cells. Type of assay: functional.
For assay [4], the system named is HeLa. Description: Ratio of cyclophosphamide IC50 to compound IC50 for human HeLa cells. Type of assay: functional.
In assay [5] the test system is DU-145. As to the kind of experiment: Ratio of beta-hydroxyisovalerylshikonin IC50 to compound IC50 for human DU145 cells. Type of assay: functional.
Assay [6] deals with HeLa. Description: Ratio of beta-hydroxyisovalerylshikonin IC50 to compound IC50 for human HeLa cells. In kind it is functional.

A word on the IC50: it is the concentration needed to halve the response being measured. Low readings indicate higher potency, high ones lower potency. Take `CC(C)=CC[C@@H](OC(=O)CCO)C1=CC(=O)c2c(O)ccc(O)c2C1=O`: the IC50 with HeLa [1] worked out at 67.6 µM; with DU-145 [2], 55.3 µM.

As to `CCC(O)(CC)CC(=O)O[C@H](CC=C(C)C)C1=CC(=O)c2c(O)ccc(O)c2C1=O`, the IC50 with HeLa [1] was found to be 52 µM; in the assay on DU-145 [2], 67 µM.

On to `CC(=O)OCCC(=O)O[C@H](CC=C(C)C)C1=CC(=O)c2c(O)ccc(O)c2C1=O`, for which the IC50 with HeLa [1] was determined as 17.3 µM; in the assay on DU-145 [2], 15.7 µM.

As to `CCCCC(CC(=O)O[C@H](CC=C(C)C)C1=CC(=O)c2c(O)ccc(O)c2C1=O)OC(C)=O` (stereo partly drawn), the IC50 in the assay with HeLa [1] was 73.5 µM; in the assay with DU-145 [2], 67.7 µM.

Regarding `CC(C)=CC[C@@H](OC(=O)c1ccoc1)C1=CC(=O)c2c(O)ccc(O)c2C1=O`, the IC50 in the assay with HeLa [1] and in the assay with DU-145 [2] was over 100 µM each time.

Turning to `CC(C)=CC[C@@H](OC(=O)c1ccco1)C1=CC(=O)c2c(O)ccc(O)c2C1=O`, the IC50 was 80.3 µM in the assay on HeLa [1] and over 100 µM in the assay on DU-145 [2].

As to `CC(C)=CC[C@@H](OC(=O)C1CCOC1)C1=CC(=O)c2c(O)ccc(O)c2C1=O` (stereo partly drawn), the IC50 with HeLa [1] turned out to be 73.5 µM; in the assay with DU-145 [2], 47.5 µM.

As for `CC(C)=CC[C@@H](OC(=O)C1CCCO1)C1=CC(=O)c2c(O)ccc(O)c2C1=O` (stereo partly drawn), the IC50 came out at 17 µM in the assay with HeLa [1] and 10.5 µM with DU-145 [2]. The “Ratio IC50” value in the assay on DU-145 [3] amounted to 5; with HeLa [4], 4.

As for `CC(C)=CC[C@@H](OC(=O)C1CCCOC1)C1=CC(=O)c2c(O)ccc(O)c2C1=O` (stereo partly drawn), the IC50 with HeLa [1] amounted to 60.5 µM; in the assay with DU-145 [2], 29.7 µM.

In the case of `CC(C)=CC[C@@H](OC(=O)C1CCCCO1)C1=CC(=O)c2c(O)ccc(O)c2C1=O` (stereo partly drawn), the IC50 in the assay with HeLa [1] was over 100 µM; in the assay on DU-145 [2], 24.7 µM.

Turning to `CC(C)=CC[C@@H](OCCO)C1=CC(=O)c2c(O)ccc(O)c2C1=O`, the figures for the IC50 in the assay on HeLa [1] and with DU-145 [2] were 18.6 µM and 9.9 µM, respectively. For the same molecule, the “Ratio IC50” value with DU-145 [3] worked out at 5; in the assay on HeLa [4] it was 4; with DU-145 [5], 2; with HeLa [6], 3.

Consider `CC(=O)OCCO[C@H](CC=C(C)C)C1=CC(=O)c2c(O)ccc(O)c2C1=O`, for which the IC50 came out at 41.5 µM in the assay on HeLa [1] and 15.5 µM in the assay on DU-145 [2].

Consider `COCCO[C@H](CC=C(C)C)C1=CC(=O)c2c(O)ccc(O)c2C1=O`, for which the IC50 turned out to be 62.4 µM with HeLa [1] and 43.2 µM in the assay with DU-145 [2].

Consider `CC[C@@](C)(O)CC(=O)O[C@H](CC=C(C)C)C1=CC(=O)c2c(O)ccc(O)c2C1=O`, for which the values for the IC50 in the assay on HeLa [1] and in the assay with DU-145 [2] were 17.9 µM and 12.7 µM, respectively.

For the molecule `CC(C)=CC[C@@H](OC[C@@H](C)O)C1=CC(=O)c2c(O)ccc(O)c2C1=O`, the IC50 was 22.5 µM with HeLa [1] and 14.3 µM in the assay with DU-145 [2].

For the molecule `CC(C)=CC[C@@H](OC[C@H](C)O)C1=CC(=O)c2c(O)ccc(O)c2C1=O`, the results for the IC50 with HeLa [1] and with DU-145 [2] were 40.3 µM and 24.5 µM, respectively.

With `CCCCC(C)(O)CC(=O)O[C@H](CC=C(C)C)C1=CC(=O)c2c(O)ccc(O)c2C1=O` (mixture of isomers), the figures for the IC50 in the assay on HeLa [1] and in the assay on DU-145 [2] were 60.6 µM and 76.5 µM, respectively.

As to `CCCC(O)CC(=O)O[C@H](CC=C(C)C)C1=CC(=O)c2c(O)ccc(O)c2C1=O` (mixture of isomers), the IC50 is 59.3 µM in the assay on HeLa [1] and over 100 µM in the assay on DU-145 [2].

Turning to `CCCCC(O)CC(=O)O[C@H](CC=C(C)C)C1=CC(=O)c2c(O)ccc(O)c2C1=O` (mixture of isomers), the results for the IC50 with HeLa [1] and in the assay on DU-145 [2] were 72.2 µM and 45.3 µM, respectively.

Regarding `CC(C)=CC[C@@H](OC(=O)CC(O)c1ccccc1)C1=CC(=O)c2c(O)ccc(O)c2C1=O` (mixture of isomers), the IC50 was determined as 44.5 µM in the assay on HeLa [1] and 17 µM with DU-145 [2].

`CCC(C)(O)CC(=O)O[C@H](CC=C(C)C)C1=CC(=O)c2c(O)ccc(O)c2C1=O` (mixture of isomers): the IC50 in the assay with HeLa [1] is 25.2 µM; with DU-145 [2] it was 16 µM.

Consider `CCCC(C)(O)CC(=O)O[C@H](CC=C(C)C)C1=CC(=O)c2c(O)ccc(O)c2C1=O` (mixture of isomers), for which the IC50 came out at 72 µM in the assay with HeLa [1] and 75 µM in the assay on DU-145 [2].

As to `CC(C)=CC[C@@H](OC(=O)CC(C)(O)C(C)C)C1=CC(=O)c2c(O)ccc(O)c2C1=O` (mixture of isomers), the IC50 in the assay on HeLa [1] was determined as 27.7 µM; in the assay on DU-145 [2] it was 16.9 µM.

As for `CCCCCCC(C)(O)CC(=O)O[C@H](CC=C(C)C)C1=CC(=O)c2c(O)ccc(O)c2C1=O` (mixture of isomers), the IC50 in the assay with HeLa [1] and with DU-145 [2] was over 100 µM throughout.

As for `CC(C)=CC[C@@H](OC(=O)CC(C)(O)c1ccccc1)C1=CC(=O)c2c(O)ccc(O)c2C1=O` (mixture of isomers), the values for the IC50 in the assay with HeLa [1] and with DU-145 [2] were 85.7 µM and over 100 µM, respectively.

For the molecule `CCCC(CC(=O)O[C@H](CC=C(C)C)C1=CC(=O)c2c(O)ccc(O)c2C1=O)OC(C)=O` (mixture of isomers), the IC50 in the assay with HeLa [1] is 51.2 µM; in the assay with DU-145 [2], 55.7 µM.

As for `CC(C)=CC[C@@H](OCC(C)O)C1=CC(=O)c2c(O)ccc(O)c2C1=O` (mixture of isomers), the IC50 with HeLa [1] amounted to 24.7 µM; with DU-145 [2], 16.1 µM.

On to `CCC(O)CO[C@H](CC=C(C)C)C1=CC(=O)c2c(O)ccc(O)c2C1=O` (mixture of isomers), for which the IC50 in the assay with HeLa [1] came out at 28.7 µM; with DU-145 [2], 16.4 µM.

Turning to `CC(=O)OC(C)CO[C@H](CC=C(C)C)C1=CC(=O)c2c(O)ccc(O)c2C1=O` (mixture of isomers), the results for the IC50 in the assay with HeLa [1] and in the assay with DU-145 [2] were 40.1 µM and 16.6 µM, respectively.

On to `CCC(CO[C@H](CC=C(C)C)C1=CC(=O)c2c(O)ccc(O)c2C1=O)OC(C)=O` (mixture of isomers), for which the half-maximal inhibitory concentration (IC50) in the assay with HeLa [1] worked out at 44 µM; in the assay with DU-145 [2] it was 25.4 µM.

On to `COC(C)CO[C@H](CC=C(C)C)C1=CC(=O)c2c(O)ccc(O)c2C1=O` (mixture of isomers), for which the figures for the IC50 in the assay on HeLa [1] and with DU-145 [2] were 53.4 µM and 16.6 µM, respectively.

For the molecule `CCC(CO[C@H](CC=C(C)C)C1=CC(=O)c2c(O)ccc(O)c2C1=O)OC` (mixture of isomers), the IC50 in the assay with HeLa [1] is 63.5 µM; with DU-145 [2], 45.7 µM.

On to `CC[C@](C)(O)CC(=O)O[C@H](CC=C(C)C)C1=CC(=O)c2c(O)ccc(O)c2C1=O` (racemic), for which the IC50 turned out to be 30.2 µM in the assay on HeLa [1] and 20.5 µM in the assay with DU-145 [2].

Regarding `CC(C)=CC[C@@H](OC(=O)CC(C)(C)O)C1=CC(=O)c2c(O)ccc(O)c2C1=O` [BETA-HYDROXYISOVALERYLSHIKONIN], the IC50 in the assay with HeLa [1] stood at 55 µM; in the assay on DU-145 [2], 16.8 µM.

For the molecule `O=P1(N(CCCl)CCCl)NCCCO1` (stereo not drawn) [CYCLOPHOSPHAMIDE ANHYDROUS], the IC50 is 71.4 µM with HeLa [1] and 52.5 µM with DU-145 [2].

For the molecule `O=c1[nH]cc(F)c(=O)[nH]1` [FLUOROURACIL], the IC50 with HeLa [1] and in the assay with DU-145 [2] was over 100 µM throughout.
